Test results published in patent US4908380A, “Pharmaceutical compositions” (Imperial Chemical Industries plc, priority 1986, dated 1990).

What was measured:
[1] = system: thromboxane receptor; assay: Test (a): rabbit or rat aortal strip, TXA2 antagonism (agonist TXA2 or U46619); format: cell-based; details: ±0.05
Text: It is believed that TXA2 exerts its physiological action through the thromboxane receptor, at which receptor various other prostanoid contractile substances derived from arachidonic acid, such as prostaglandins H2, F2 alpha and prostaglandin D2, can exert contractile effects. There are two principal ways in which the effects of TXA2 (and also of prostaglandins H2, F2 alpha and/or D2) can be ameliorated. […] The second way is to administer a pharmacological agent which inhibits one or more of the enzymes involved in the production of TXA2 and in particular, which inhibits the enzyme known as thromboxane synthetase (TXA2 synthetase). Such an agent is said to be a TXA2 synthetase inhibitor.
As stated earlier, the novel compounds of formula I are antagonists of one or more of the actions of TXA2, for example certain of its actions on blood platelets, the vasculature and/or the lung.
(a) The rabbit aortal strip model devised by Piper and Vane (Nature, 1969, 223, 29-35) or the rat aortal strip model developed by Kennedy et alia (Prostaglandins, 1982, 24, 667-689), using as agonist a freshly prepared sample of TXA2, generated by addition of arachidonic acid (25 μg) to citrated, platelet rich rabbit plasma (250 μl) and allowing the mixture to aggregate fully over 90 seconds before use; alternatively the TXA2 mimetic agent known as U46619 (described by R. L. Jones et alia in "Chemistry, Biochemistry and Pharmacological Activity of Prostanoids" edited by S. M. Roberts and F. Scheinmann, at page 211; Pergamon Press, 1979) may be used as the agonist; and
Using the above test procedures (a)-(c), the following representative results have been obtained with the compounds of formula II wherein (i) X^1 is 2-chloro, (ii) X^1 is 2-cyano; or (iii) X^1 is 4-cyano, respectively: […]

[2] = system: U46619 induced bronchoconstriction; assay: Test (c): U46619 induced bronchoconstriction in Konzett-Rossler anaesthetised guinea-pig; format: in vivo; details: 2 hours after oral dosing at 0.05 mg/kg
Text: (c) a bronchoconstriction test involving measuring the inhibition by a test compound of the bronchoconstriction induced in the Konzett-Rossler, anaesthetised guinea-pig model (as modified by Collier and James, Brit.J.Pharmacol., 1967, 30, 283-307) by intravenous administration of the TXA2 mimetic agent, U46619 and involving:
(i) obtaining a cumulative dose-response curve to U46619 induced bronchoconstriction by intravenous administration of constant volumes of increasing concentrations of U46619 (0.2-4 μg/kg) in physiological saline solution and expressing bronchoconstriction as the maximum of that theoretically obtainable with no air flow to the test animal;
(ii) generating a cumulative dose-response curve to U46619 induced bronchoconstriction at 30 minute intervals for 3 hours after oral dosing of test compound; and
(iii) calculating a dose-ratio for the test compound (that is the ratio of concentration of U46619 required to cause 50% bronchoconstriction in the presence and absence of test compound) indicating the potency of TXA2 antagonism.

[3] = system: U46619 induced hypertension; assay: Test (d): U46619 induced hypertension in anaesthetised male rats (Alderley Park strain); format: in vivo, rat; details: 1 hour after oral dose of 0.5 mg/kg
Method: (d) Male rats (Alderley Park strain) are anaesthetised with sodium pentobarbital and blood pressure is monitored at the carotid artery. The TXA2 mimetic agent U46619 is administered intravenously at 5 μg/kg via the jugular vein to produce 20-30 mm/Hg (2640-3970 pascal) increase in systolic blood pressure. The process is repeated twice to ensure adequacy of response. A test compound is then administered either intravenously (via the jugular vein) or orally (via a cannula) directly into the stomach and the animal challenged with U46619, five minutes after dosing with test compound and then successively every ten minutes until the hypertensive effect of U46619 is no longer blocked.

[4] = system: arachidonic acid induced aggregation of human platelets; assay: Arachidonic acid induced aggregation of human platelets in vitro; format: cell-based; details: Platelet, read-out: % Inhibition of vehicle control
Text: The beneficial effects of combining one of the novel TXA2 antagonists of formula I defined hereinabove with a TXA2 synthetase inhibitor may be illustrated in vitro, for example by evaluating their effects in inhibiting arachidonic acid induced aggregation of human platelets, using standard procedures well known in the art. Thus, for example, the following results were obtained with the TXA2 antagonist described hereinafter in Ex. 2, 6 and 20 (Compound A) and the TXA2 synthetase inhibitor known as dazoxiben (Compound B): […]

[5] = system: diamondback moths; assay: Catches of diamondback moths (lures)

## N#Cc1ccccc1[C@H]1OC[C@@H](C/C=C\CCC(=O)O)[C@@H](c2ccccc2O)O1 (relative stereo) [(ii), 4(Z)-6-([2,4,5-cis]-2-o-cyanophenyl-4-o-hydroxyphenyl-1,3-dioxan-5-yl)hexenoic acid]
[1]
  pA2: 8.09
[2]
  dose ratio: > 32
[3]
  inhibition of U46619 induced hypertension: > 80%

## O=C(O)c1ccc(OCCn2ccnc2)cc1 [B]
[4]; B at 10^-4 M
  inhibition at 100 µM: 32.2 ± 16.3%
[4]; B at 10^-5 M
  inhibition at 10 µM: 4.5 ± 1.8%

## N#Cc1ccc([C@H]2OC[C@@H](C/C=C\CCCC(=O)O)[C@@H](c3ccccc3)O2)cc1 (relative stereo) [(v), reference compound]
[1]
  pA2: 5.65

## CCCC/C=C\CCCCCCCCCCOC(C)=O [HLA, ( --Z)-11-hexadecenyl acetate]
[5]; week 1
  Weekly catch week 1: 0
[5]; week 2
  Weekly catch week 2: 1
[5]; week 3
  Weekly catch week 3: 5
[5]; week 4
  Weekly catch week 4: 3

## O=C(O)CCC/C=C\C[C@@H]1CO[C@H](c2ccccc2Cl)O[C@@H]1c1ccccc1 (relative stereo) [(iv), 5(Z)-7-([2,4,5-cis]-2-o-chlorophenyl-4-phenyl-1,3-dioxan-5-yl)heptenoic acid, reference compound]
[1]
  pA2: 6.22

## O=C(O)CC/C=C\C[C@@H]1CO[C@H](c2ccccc2Cl)O[C@@H]1c1ccccc1O (relative stereo) [(i), 4(Z)-6-([2,4,5-cis]-2-o-chlorophenyl-4-o-hydroxyphenyl-1,3-dioxan-5-yl)hexenoic acid]
[1]
  pA2: 8.02
[3]
  inhibition of U46619 induced hypertension: > 80%
[4]; A at 10^-9 M
  inhibition at 0.001 µM: 2.2 ± 0.8%

## N#Cc1ccc([C@H]2OC[C@@H](C/C=C\CCC(=O)O)[C@@H](c3ccccc3O)O2)cc1 (relative stereo) [(iii)]
[1]
  pA2: 7.45
[2]
  dose ratio: > 350
[3]
  inhibition of U46619 induced hypertension: > 40%
